Laboratory results taken from article PMC6496959 (Journal of medicinal chemistry, 2018).

Test system: A/PR/8/34 (NA-H274Y) (H1N1)
Format: cell-based, influenza A virus
Settings: read-out: Antiviral activity (EC50)

Row | SMILES | EC50
1 | CCOC(=O)C1=C[C@@H](OC(CC)CC)[C@H](NC(C)=O)[C@@H](N)C1 [Oseltamivir, oseltamivir] | > 10 µM
2 | NC12CC3CC(CC(C3)C1)C2 [Amantadine, amantadine, reference compound] | > 100 µM
